Test results from US20120004246A1, “PURINYL DERIVATIVES AND THEIR USE AS POTASSIUM CHANNEL MODULATORS” (NeuroSearch A/S, priority 2007, published 2012).

Molecular target: T1, hSK3 channels (Homo sapiens, UniProt Q9UGI6)
T1 construct: expressed in transfected cells; host or cells: HEK293
Test: whole-cell patch-clamp of SK3 current in HEK293 cells expressing hSK3 channels
Assay type: cell-based
Details: SK3 activation
Description: The ionic current through small-conductance Ca^2+-activated K^+ channels (SK channels, subtype 3) is recorded using the whole-cell configuration of the patch-clamp technique in a classic patch-clamp set-up using HEK293 tissue culture cells expressing hSK3 channels as described in e.g. WO 2006/100212.
The SC100 value determined is defined as the Stimulating Concentration required for increasing the baseline current by 100%. The below SC100 values are an indication of the SK3 activating properties of the compounds of the invention.

| SC100 (Stimulating Concentration required for increasing the baseline current by 100%) [µM] | Structure (SMILES) |
| --- | --- |
| 0.04 | CCn1cnc2c(Nc3ccc(Cl)c(Cl)c3)nc(-n3nc(C)cc3C)nc21 [Compound 4.1, (3,4-Dichloro-phenyl)-[2-(3,5-dimethyl-pyrazol-1-yl)-9-ethyl-9H-purin-6-yl]-amine] |
| 0.02 | Cc1cc(C)n(-c2nc(Nc3ccc(F)c(F)c3)c3ncn(C)c3n2)n1 [Compound 6.1, (3,4-Difluoro-phenyl)-(2-(3,5-dimethyl-pyrazol-1-yl)-9-methyl-9H-purin-6-yl)-amine] |
